# Target: T1, CD73 (Calu-6 cells) (Homo sapiens, UniProt P21589)
# T1 construct: endogenous in cells; host or cells: Calu-6 cells
# T1 sequence (P21589 27-549): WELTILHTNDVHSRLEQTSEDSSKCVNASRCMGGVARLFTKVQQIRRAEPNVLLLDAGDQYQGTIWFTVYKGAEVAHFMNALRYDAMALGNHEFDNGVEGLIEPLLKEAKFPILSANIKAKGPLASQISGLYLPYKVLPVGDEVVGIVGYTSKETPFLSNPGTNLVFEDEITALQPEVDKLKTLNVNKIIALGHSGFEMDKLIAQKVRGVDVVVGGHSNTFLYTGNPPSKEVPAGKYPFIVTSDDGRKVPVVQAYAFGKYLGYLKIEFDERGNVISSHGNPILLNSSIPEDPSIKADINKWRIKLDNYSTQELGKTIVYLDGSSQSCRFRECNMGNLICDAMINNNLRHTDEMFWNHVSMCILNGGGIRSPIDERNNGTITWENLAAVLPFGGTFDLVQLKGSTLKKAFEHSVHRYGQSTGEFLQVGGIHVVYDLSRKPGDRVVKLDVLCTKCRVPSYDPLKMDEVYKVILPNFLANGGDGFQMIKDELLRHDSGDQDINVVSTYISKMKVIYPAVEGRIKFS
# Assay: Enzymatic activity detection at the cellular level (Calu-6 cells, AMP substrate, Cell-titer Glo luminescence)
# Type: cell-based
# Conditions: enzymatic IC50 at the Calu-6 cell level, 30 min pre-incubation, 120 min at 37° C.
# Procedure: The Calu-6 cells were digested and re-suspended using TM buffer (25 mM Tris, 5 mM MgCl2, pH 7.5). Calu-6 cell suspension was seeded into 96 well cell culture plate, and the number of cells per well was 2.5×10^4, adding volume of 100 μL/well. Compound solution with gradient concentration was prepared by TM buffer, and 50 μL DMSO solution with different concentration was added into each pore cell. […] Pre-incubated in a shaker at 37° C. for 30 min. Each well was added with 50 μL 800 μM AMP solution. The shaker at 37° C. for 120 min was continued to incubate, then the 96-well plates were centrifuged and 50 μL supernatant was transferred to the new 96-well plates. […] The luminescence value was read by the multi-function enzymatic reader and converted into the inhibition percentage: Inhibition percentage=(1−reading/Max)*100. The “maximum value” was DMSO control. IC50 values were obtained by curve fitting with GraphPad Prism software.
row,IC50,Structure (SMILES)
1,1.3 nM,"O=c1[nH]cc(-c2cc([C@H]3C[C@@H]3c3ccccc3)c(Cl)nn2)c(=O)[nH]1 [Compound 57, 5-(6-chloro-5-((S,2S)-2-phenylcyclopropyl)pyridazin-3-yl)pyrimidine-2,4(1H,3H)-dione]"
2,8.7 nM,"N#Cc1cccc(C2CC2c2cc(-c3c[nH]c(=O)[nH]c3=O)nnc2Cl)c1 (centres unmarked) [Compound 26, 3-(2-(3-chloro-6-(2,4-dioxo-1,2,3,4-tetrahydropyrimidin-5-yl)pyridazin-4-yl)cyclopropyl)benzonitrile]"
3,5.9 nM,"N#Cc1nnc(-c2c[nH]c(=O)[nH]c2=O)cc1C1CC1c1ccccc1 (centres unmarked) [Compound 34, 6-(2,4-dioxo-1,2,3,4-tetrahydropyrimidin-5-yl)-4-(2-phenylcyclopropyl)pyridazine-3-carbonitrile]"
4,1.2 nM,"COc1nnc(-c2c[nH]c(=O)[nH]c2=O)cc1[C@H]1C[C@@H]1/C=C/c1ccccc1 [Compound 20, 5-(6-methoxy-S-((1S,2R)-2-((E)-styryl)cyclopropyl)pyridazin-3-yl)pyrimidine-2,4(1H,3H)-dione]"
5,3.1 nM,COc1ccc(C#C[C@H]2C[C@@H]2c2cc(-c3c[nH]c(=O)[nH]c3=O)nnc2Cl)cc1 [Compound 44]
6,5.6 nM,"O=c1[nH]cc(-c2cc([C@H]3C[C@@H]3C#Cc3ccccc3)c(Cl)nn2)c(=O)[nH]1 [Compound 18, 5-(6-chloro-5-((1S,2S)-2-(phenylethynyl)cyclopropyl)pyridazin-3-yl)pyrimidine-2,4(1H,3H)-dione]"
7,5.4 nM,"COc1nnc(-c2c[nH]c(=O)[nH]c2=O)cc1C1CC1c1ccc(F)cc1 (centres unmarked) [Compound 32, 5-(5-(2-(4-fluorophenyl)cyclopropyl)-6-methoxypyridazin-3-yl)pyrimidine-2,4(1H,3H)-dione]"
8,22.7 nM,"Cc1nnc(-c2c[nH]c(=O)[nH]c2=O)cc1C1CC1c1ccccc1 (centres unmarked) [Compound 22, 5-(6-methyl-5-(2-phenylcyclopropyl)pyridazin-3-yl)pyrimidine-2,4(1H,3H)-dione]"
9,5.5 nM,"COc1nnc(-c2c[nH]c(=O)[nH]c2=O)cc1[C@H]1C[C@@H]1C#Cc1ccccc1 [Compound 21, 5-(6-methoxy-S-((1S,2S)-2-(phenylethynyl)cyclopropyl)pyridazin-3-yl)pyrimidine-2,4(1H,3H)-dione]"
10,1.4 nM,"O=c1[nH]cc(-c2cc(C3CC3c3ccccc3)c(Cl)nn2)c(=O)[nH]1 (centres unmarked) [Compound 23, 5-(6-chloro-5-(2-phenylcyclopropyl)pyridazin-3-yl)pyrimidine-2,4(1H,3H)-dione]"
11,2.4 nM,COc1nnc(-c2c[nH]c(=O)[nH]c2=O)cc1[C@H]1C[C@@H]1C#Cc1cccnc1 [Compound 53]
12,4.1 nM,"COc1cccc(C2CC2c2cc(-c3c[nH]c(=O)[nH]c3=O)nnc2Cl)c1 (centres unmarked) [Compound 29, 5-(6-chloro-5-(2-(3-methoxyphenyl)cyclopropyl)pyridazin-3-yl)pyrimidine-2,4(1H,3H)-dione]"
13,3.9 nM,"COc1nnc(-c2c[nH]c(=O)[nH]c2=O)cc1C1CC1c1ccc(Cl)cc1 (centres unmarked) [Compound 33, 5-(5-(2-(4-chlorophenyl)cyclopropyl)-6-methoxypyridazin-3-yl)pyrimidine-2,4(1H,3H)-dione]"
14,1.2 nM,"O=c1[nH]cc(-c2cc([C@H]3C[C@@H]3C#Cc3ccncc3)c(Cl)nn2)c(=O)[nH]1 [Compound 37, 5-(6-chloro-5-((1S,2S)-2-(pyridin-4-ylethynyl)cyclopropyl)pyridazin-3-yl)pyrimidine-2,4(1H, 3H)-dione]"
15,7.2 nM,"COc1nnc(-c2c[nH]c(=O)[nH]c2=O)cc1C1CC1c1ccc(C#N)cc1 (centres unmarked) [Compound 77, 4-(2-(6-(2,4-dioxo-1,2,3,4-tetrahydropyrimidin-5-yl)-3-methoxypyridazin-4-yl)cyclopropyl)benzonitrile]"
16,114 nM,"Cc1nnc(-c2c[nH]c(=O)[nH]c2=O)cc1C1CC1Cc1ccccc1 (centres unmarked) [Compound D2, reference compound]"

# The next lines start with the compound.
row,Structure (SMILES),IC50
1,"C=C[C@H]1C[C@@H]1c1cc(-c2c[nH]c(=O)[nH]c2=O)nnc1Cl [Compound 13, 5-(6-chloro-5-((1S,2R)-2-vinylcyclopropyl)pyridazin-3-yl)pyrimidine-2,4(1H,3H)-dione]",8.5 nM
2,"Cc1nnc(-c2c[nH]c(=O)[nH]c2=O)cc1[C@H]1C[C@@H]1/C=C/c1ccccc1 [Compound 16, 5-(6-methyl-5-((1S,2R)-2-((E)-styryl)cyclopropyl)pyridazin-3-yl)pyrimidine-2,4(1H,3H)-dione]",2.3 nM
3,"N#Cc1ccc(C2CC2c2cc(-c3c[nH]c(=O)[nH]c3=O)nnc2Cl)cc1 (centres unmarked) [Compound 25, 4-(2-(3-chloro-6-(2,4-dioxo-1,2,3,4-tetrahydropyrimidin-5-yl)pyridazin-4-yl)cyclopropyl)benzonitrile]",1.8 nM
4,"Cc1nnc(-c2c[nH]c(=O)[nH]c2=O)cc1[C@H]1C[C@@H]1/C=C/C1CC1 [Compound 9, 5-(5-((1S,2R)-2-((E)-2-cyclopropylvinyl)cyclopropyl)-6-methylpyridazin-3-yl)pyrimidine-2,4(1H,3H)-dione]",200 nM
5,"O=c1[nH]cc(-c2cc([C@H]3C[C@@H]3c3nc4ccccc4[nH]3)c(Cl)nn2)c(=O)[nH]1 [Compound 60, 5-(5-((1S,2S)-2-(1H-benzo[d]imidazol-2-yl)cyclopropyl)-6-chloropyridazin-3-yl)pyrimidine-2, 4(1H,3H)-dione]",23.3 nM
6,"N#Cc1ccc(/C=C/[C@H]2C[C@@H]2c2cc(-c3c[nH]c(=O)[nH]c3=O)nnc2Cl)cc1 [Compound 17, 4-((E)-2-((1R,2S)-2-(3-chloro-6-(2,4-dioxo-1,2,3,4-tetrahydropyrimidin-5-yl)pyridazin-4-yl)cyclopropyl)vinyl)benzonitrile]",2.3 nM
7,O=c1[nH]cc(-c2cc(C3CC3c3cccc(F)c3F)c(Cl)nn2)c(=O)[nH]1 (centres unmarked) [Compound 70],7 nM
8,"C=C(C)c1nnc(-c2c[nH]c(=O)[nH]c2=O)cc1[C@H]1C[C@@H]1CC [Compound 2, 5-(5-((1S,2S)-2-ethylcyclopropyl)-6-(prop-1-en-2-yl)pyridazin-3-yl)pyrimidine-2,4(1H,3H)-dione]",329 nM
9,O=c1[nH]cc(-c2cc(C3CC3c3cccc(C(F)(F)F)c3)c(Cl)nn2)c(=O)[nH]1 (centres unmarked) [Compound 67],7.3 nM
10,"O=c1[nH]cc(-c2cc(C3CC3c3cccc4ccccc34)c(Cl)nn2)c(=O)[nH]1 (stereo not drawn) [Compound 30, 5-(6-chloro-S-(2-(naphthalen-1yl)cyclopropyl)pyridazin-3-yl)pyrimidine-2,4(1H,3H)-dione]",60 nM
11,O=c1[nH]cc(-c2cc(C3CC3c3ccc(-c4ccccc4)cc3)c(Cl)nn2)c(=O)[nH]1 (centres unmarked) [Compound 76],51.9 nM
12,O=c1[nH]cc(-c2cc(C3CC3c3ccc(F)cc3F)c(Cl)nn2)c(=O)[nH]1 (centres unmarked) [Compound 71],4.6 nM
13,Cc1cc(C)cc(C2CC2c2cc(-c3c[nH]c(=O)[nH]c3=O)nnc2Cl)c1 (centres unmarked) [Compound 63],19 nM

# System: not listed separately
# Assay: Pharmacokinetic evaluation in mice after intragastric administration (plasma concentration by LC/MS/MS)
# Type: in vivo
# Conditions: mouse, Balb/C female mice, single PO 10 mg/kg
# Procedure: LC/MS/MS method was used to determine the plasma concentration of the embodiment compound at different time after intragastric administration in mice. Study the pharmacokinetic behavior of the compound in mice and evaluate its pharmacokinetic characteristics.
# Methods: A single PK study (PO, 10 mg/kg) was performed on healthy Balb/C female mice (about 20 g) purchased from Beijing Vital River Laboratory Animal Technology Co., Ltd. About 1 hour before administration, a certain amount of drug was weighed and added with 5% DMSO and 95% hydroxypropyl betascyclodextrin (HP-β-CD) solution to form a colorless and clear solution. HP-β-CD solution is a 20% HP-β-CD solution prepared by adding HP-p-CD powder into 0.9% normal saline. Intragastric administration was performed at the dosage volume of 10 mL/kg, and blood was collected through the orbital venous plexus of mice. The blood collection time points were as follows: At 0.25, 0.5, 1.0, 2.0, 4.0, 7.0 and 24.0 hours before and after drug administration, 100 uL whole blood to K2EDTA anticoagulant tubes were taken at each time point, and the collected whole blood samples were centrifuged at 4000 rpm for 10 min. The plasma was separated and stored in the refrigerator at −80° C.
# The above plasma samples were added to the pure acetonitrile solution containing the inner target for protein precipitation pre-treatment, centrifugation was performed at 10000 rpm for 10 min, and the supernatant was taken, mixed with water 1:1, and 10 μL to LC-MS/MS was used for detection. The linear range of compounds detected in plasma samples was 1-1000 ng/mL, and the data results were as follows:
# The compound of the invention has good pharmacokinetic absorption and obvious pharmacokinetic advantages.
AUC,Cmax,Tmax,Structure (SMILES)
16900 ng·h/mL,10400 ng/mL,30 min,"C=C[C@H]1C[C@@H]1c1cc(-c2c[nH]c(=O)[nH]c2=O)nnc1Cl [Compound 13, 5-(6-chloro-5-((1S,2R)-2-vinylcyclopropyl)pyridazin-3-yl)pyrimidine-2,4(1H,3H)-dione]"
10700 ng·h/mL,5410 ng/mL,30 min,"O=c1[nH]cc(-c2cc([C@H]3C[C@@H]3c3ccccc3)c(Cl)nn2)c(=O)[nH]1 [Compound 57, 5-(6-chloro-5-((S,2S)-2-phenylcyclopropyl)pyridazin-3-yl)pyrimidine-2,4(1H,3H)-dione]"
677 ng·h/mL,547 ng/mL,30 min,"Cc1nnc(-c2c[nH]c(=O)[nH]c2=O)cc1[C@H]1C[C@@H]1C(C)C [Compound D1, reference compound]"
